Measurements as given in ChEMBL document CHEMBL5634117 (Eur J Med Chem, 2023).

How the values were obtained:
SK-OV-3 = assay: Growth inhibition of human SK-OV-3 cells assessed as reduction in cell viability measured after 48 hrs by SRB assay; assay type: functional
NCI-H23 = assay: Growth inhibition of human NCI-H23 cells assessed as reduction in cell viability measured after 48 hrs by SRB assay; assay type: functional
IGROV-1 = assay: Growth inhibition of human IGROV-1 cells assessed as reduction in cell viability measured after 48 hrs by SRB assay; assay type: functional
HL-60(TB) = assay: Growth inhibition of human HL-60(TB) cells assessed as reduction in cell viability measured after 48 hrs by SRB assay; assay type: functional
MOLT-4 = assay: Growth inhibition of human MOLT-4 cells assessed as reduction in cell viability measured after 48 hrs by SRB assay; assay type: functional
ACHN = assay: Growth inhibition of human ACHN cells assessed as reduction in cell viability measured after 48 hrs by SRB assay; assay type: functional
A498 = assay: Growth inhibition of human A498 cells assessed as reduction in cell viability measured after 48 hrs by SRB assay; assay type: functional
Malme-3M = assay: Growth inhibition of human Malme-3M cells assessed as reduction in cell viability measured after 48 hrs by SRB assay; assay type: functional
SNB-19 = assay: Growth inhibition of human SNB-19 cells assessed as reduction in cell viability measured after 48 hrs by SRB assay; assay type: functional
NCI/ADR-RES = assay: Growth inhibition of human NCI/ADR-RES cells assessed as reduction in cell viability measured after 48 hrs by SRB assay; assay type: functional
SK-MEL-2 = assay: Growth inhibition of human SK-MEL-2 cells assessed as reduction in cell viability measured after 48 hrs by SRB assay; assay type: functional
BT-549 = assay: Growth inhibition of human BT-549 cells assessed as reduction in cell viability measured after 48 hrs by SRB assay; assay type: functional
OVCAR-5 = assay: Growth inhibition of human OVCAR-5 cells assessed as reduction in cell viability measured after 48 hrs by SRB assay; assay type: functional
UACC-257 = assay: Growth inhibition of human UACC-257 cells assessed as reduction in cell viability measured after 48 hrs by SRB assay; assay type: functional
T47D = assay: Growth inhibition of human T47D cells assessed as reduction in cell viability measured after 48 hrs by SRB assay; assay type: functional
NCI-H460 = assay: Growth inhibition of human NCI-H460 cells assessed as reduction in cell viability measured after 48 hrs by SRB assay; assay type: functional
HCT-15 = assay: Growth inhibition of human HCT-15 cells assessed as reduction in cell viability measured after 48 hrs by SRB assay; assay type: functional
OVCAR-3 = assay: Growth inhibition of human OVCAR-3 cells assessed as reduction in cell viability measured after 48 hrs by SRB assay; assay type: functional
HOP-62 = assay: Growth inhibition of human HOP-62 cells assessed as reduction in cell viability measured after 48 hrs by SRB assay; assay type: functional
NCI-H522 = assay: Growth inhibition of human NCI-H522 cells assessed as reduction in cell viability measured after 48 hrs by SRB assay; assay type: functional
OVCAR-4 = assay: Growth inhibition of human OVCAR-4 cells assessed as reduction in cell viability measured after 48 hrs by SRB assay; assay type: functional
MCF7 = assay: Growth inhibition of human MCF7 cells assessed as reduction in cell viability measured after 48 hrs by SRB assay; assay type: functional
SF-295 = assay: Growth inhibition of human SF-295 cells assessed as reduction in cell viability measured after 48 hrs by SRB assay; assay type: functional
HOP-92 = assay: Growth inhibition of human HOP-92 cells assessed as reduction in cell viability measured after 48 hrs by SRB assay; assay type: functional
COLO 205 = assay: Growth inhibition of human COLO 205 cells assessed as reduction in cell viability measured after 48 hrs by SRB assay; assay type: functional
MDA-MB-435 = assay: Growth inhibition of human MDA-MB-435 cells assessed as reduction in cell viability measured after 48 hrs by SRB assay; assay type: functional
UO-31 = assay: Growth inhibition of human UO-31 cells assessed as reduction in cell viability measured after 48 hrs by SRB assay; assay type: functional
A549 = assay: Growth inhibition of human A549 cells assessed as reduction in cell viability measured after 48 hrs by SRB assay; assay type: functional
CCRF-CEM = assay: Growth inhibition of human CCRF-CEM cells assessed as reduction in cell viability measured after 48 hrs by SRB assay; assay type: functional
LOX IMVI = assay: Growth inhibition of human LOX IMVI cells assessed as reduction in cell viability measured after 48 hrs by SRB assay; assay type: functional
NCI-H322M = assay: Growth inhibition of human NCI-H322M cells assessed as reduction in cell viability measured after 48 hrs by SRB assay; assay type: functional
Hs-578T = assay: Growth inhibition of human Hs-578T cells assessed as reduction in cell viability measured after 48 hrs by SRB assay; assay type: functional
UACC-62 = assay: Growth inhibition of human UACC-62 cells assessed as reduction in cell viability measured after 48 hrs by SRB assay; assay type: functional
RXF 393 = assay: Growth inhibition of human RXF 393 cells assessed as reduction in cell viability measured after 48 hrs by SRB assay; assay type: functional
HCT-116 = assay: Growth inhibition of human HCT-116 cells assessed as reduction in cell viability measured after 48 hrs by SRB assay; assay type: functional
KM12 = assay: Growth inhibition of human KM12 cells assessed as reduction in cell viability measured after 48 hrs by SRB assay; assay type: functional
TK-10 = assay: Growth inhibition of human TK-10 cells assessed as reduction in cell viability measured after 48 hrs by SRB assay; assay type: functional
[1] = target: Mitogen-activated protein kinase 10 (Homo sapiens, UniProt P53779); assay: Inhibition of human JNK3 at 10 uM in presence of ATP relative to control
Mitogen-activated protein kinase 10, sequence (P53779 whole entry): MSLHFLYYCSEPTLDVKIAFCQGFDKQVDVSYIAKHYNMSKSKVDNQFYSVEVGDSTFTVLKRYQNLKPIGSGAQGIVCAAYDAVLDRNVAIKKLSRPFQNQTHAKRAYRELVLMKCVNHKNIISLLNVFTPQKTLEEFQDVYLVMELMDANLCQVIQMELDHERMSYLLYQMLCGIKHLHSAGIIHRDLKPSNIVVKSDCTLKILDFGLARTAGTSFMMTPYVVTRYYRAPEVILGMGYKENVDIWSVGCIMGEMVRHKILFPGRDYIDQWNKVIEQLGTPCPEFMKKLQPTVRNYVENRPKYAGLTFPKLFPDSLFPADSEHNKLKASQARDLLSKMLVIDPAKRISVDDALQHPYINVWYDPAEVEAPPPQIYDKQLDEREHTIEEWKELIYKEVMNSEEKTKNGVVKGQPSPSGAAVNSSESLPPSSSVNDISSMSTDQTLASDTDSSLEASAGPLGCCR

[2] = target: Mitogen-activated protein kinase 8 (Homo sapiens, UniProt P45983); assay: Inhibition of human JNK1 at 10 uM in presence of ATP relative to control
Mitogen-activated protein kinase 8, sequence (P45983 whole entry): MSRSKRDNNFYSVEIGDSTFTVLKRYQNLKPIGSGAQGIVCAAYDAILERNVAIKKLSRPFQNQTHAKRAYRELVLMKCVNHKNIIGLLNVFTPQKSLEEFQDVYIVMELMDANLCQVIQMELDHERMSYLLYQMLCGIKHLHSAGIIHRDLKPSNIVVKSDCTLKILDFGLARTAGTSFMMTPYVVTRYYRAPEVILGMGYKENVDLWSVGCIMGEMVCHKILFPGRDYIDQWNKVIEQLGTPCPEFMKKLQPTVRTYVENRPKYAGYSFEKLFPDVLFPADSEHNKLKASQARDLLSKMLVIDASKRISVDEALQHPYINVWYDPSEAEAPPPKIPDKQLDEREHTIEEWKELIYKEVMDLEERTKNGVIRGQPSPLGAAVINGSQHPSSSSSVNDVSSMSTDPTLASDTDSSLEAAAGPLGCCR

EKVX = assay: Growth inhibition of human EKVX cells assessed as reduction in cell viability measured after 48 hrs by SRB assay; assay type: functional
SW-620 = assay: Growth inhibition of human SW620 cells assessed as reduction in cell viability measured after 48 hrs by SRB assay; assay type: functional
SNB-75 = assay: Growth inhibition of human SNB-75 cells assessed as reduction in cell viability measured after 48 hrs by SRB assay; assay type: functional
HCC 2998 = assay: Growth inhibition of human HCC 2998 cells assessed as reduction in cell viability measured after 48 hrs by SRB assay; assay type: functional
SK-MEL-28 = assay: Growth inhibition of human SK-MEL-28 cells assessed as reduction in cell viability measured after 48 hrs by SRB assay; assay type: functional
HT-29 = assay: Growth inhibition of human HT-29 cells assessed as reduction in cell viability measured after 48 hrs by SRB assay; assay type: functional
SF-539 = assay: Growth inhibition of human SF-539 cells assessed as reduction in cell viability measured after 48 hrs by SRB assay; assay type: functional

CC(C)(C)n1cc(-c2ccnc(NCCCNS(=O)(=O)c3ccc(Br)cc3)c2)c(-c2cccc(O)c2)n1
GI50 (SK-OV-3): 2520 nM | GI50 (NCI-H23): 1830 nM | GI50 (IGROV-1): 1910 nM | GI50 (HL-60(TB)): 2720 nM | GI50 (MOLT-4): 2300 nM | GI50 (ACHN): 1990 nM | GI50 (A498): 1330 nM | GI50 (Malme-3M): 1670 nM | GI50 (SNB-19): 2110 nM | GI50 (NCI/ADR-RES): 2210 nM | GI50 (SK-MEL-2): 2130 nM | GI50 (BT-549): 1500 nM | GI50 (OVCAR-5): 1870 nM | GI50 (UACC-257): 2010 nM | GI50 (T47D): 2480 nM | GI50 (NCI-H460): 1990 nM | GI50 (HCT-15): 1480 nM | GI50 (OVCAR-3): 2150 nM | GI50 (HOP-62): 2050 nM | GI50 (NCI-H522): 2130 nM | GI50 (OVCAR-4): 1910 nM | GI50 (MCF7): 1880 nM | GI50 (SF-295): 1710 nM | GI50 (HOP-92): 1560 nM | GI50 (COLO 205): 1850 nM | GI50 (MDA-MB-435): 1820 nM | GI50 (UO-31): 1660 nM | GI50 (A549): 2110 nM | GI50 (CCRF-CEM): 2260 nM | GI50 (LOX IMVI): 1770 nM | GI50 (NCI-H322M): 2310 nM | GI50 (Hs-578T): 2240 nM | GI50 (UACC-62): 1590 nM | GI50 (RXF 393): 1460 nM | GI50 (HCT-116): 1310 nM | GI50 (KM12): 2110 nM | GI50 (TK-10): 2510 nM | inhibition [1]: 99.2% | inhibition [2]: 98.8% | GI50 (EKVX): 1950 nM | GI50 (SW-620): 1830 nM | GI50 (SNB-75): 1760 nM | GI50 (HCC 2998): 1920 nM | GI50 (SK-MEL-28): 1790 nM | GI50 (HT-29): 1420 nM | GI50 (SF-539): 1700 nM

CC(C)(C)n1cc(-c2ccnc(NCCCNS(=O)(=O)c3ccc(C(F)(F)F)cc3)c2)c(-c2cccc(O)c2)n1
GI50 (SK-OV-3): 2690 nM | GI50 (NCI-H23): 1670 nM | GI50 (IGROV-1): 1800 nM | GI50 (HL-60(TB)): 2810 nM | GI50 (MOLT-4): 2330 nM | GI50 (ACHN): 1880 nM | GI50 (A498): 1540 nM | GI50 (Malme-3M): 1720 nM | GI50 (SNB-19): 1980 nM | GI50 (NCI/ADR-RES): 2070 nM | GI50 (SK-MEL-2): 2100 nM | GI50 (BT-549): 1610 nM | GI50 (OVCAR-5): 1810 nM | GI50 (UACC-257): 2070 nM | GI50 (T47D): 2240 nM | GI50 (NCI-H460): 1860 nM | GI50 (HCT-15): 1470 nM | GI50 (OVCAR-3): 1960 nM | GI50 (HOP-62): 1930 nM | GI50 (NCI-H522): 1990 nM | GI50 (OVCAR-4): 2290 nM | GI50 (MCF7): 1780 nM | GI50 (SF-295): 1690 nM | GI50 (HOP-92): 1600 nM | GI50 (COLO 205): 1950 nM | GI50 (MDA-MB-435): 1810 nM | GI50 (UO-31): 1580 nM | GI50 (A549): 2020 nM | GI50 (CCRF-CEM): 2980 nM | GI50 (LOX IMVI): 1720 nM | GI50 (NCI-H322M): 2070 nM | GI50 (Hs-578T): 1980 nM | GI50 (UACC-62): 1690 nM | GI50 (RXF 393): 1460 nM | GI50 (HCT-116): 1550 nM | GI50 (KM12): 2150 nM | GI50 (TK-10): 2310 nM | inhibition [1]: 98.6% | inhibition [2]: 99.5% | GI50 (EKVX): 1820 nM | GI50 (SW-620): 1890 nM | GI50 (SNB-75): 1940 nM | GI50 (HCC 2998): 1820 nM | GI50 (SK-MEL-28): 1750 nM | GI50 (HT-29): 1450 nM | GI50 (SF-539): 1650 nM

O=C1c2ccccc2-c2n[nH]c3cccc1c23
GI50 (SK-OV-3): 21000 nM | GI50 (NCI-H23): 23800 nM | GI50 (IGROV-1): 11400 nM | GI50 (HL-60(TB)): 42100 nM | GI50 (MOLT-4): 20400 nM | GI50 (ACHN): 6640 nM | GI50 (A498): 7030 nM | GI50 (Malme-3M): 16400 nM | GI50 (SNB-19): 50000 nM | GI50 (NCI/ADR-RES): 22600 nM | GI50 (SK-MEL-2): 29000 nM | GI50 (BT-549): 30800 nM | GI50 (OVCAR-5): 24400 nM | GI50 (UACC-257): 29500 nM | GI50 (T47D): > 100000 nM | GI50 (NCI-H460): 9860 nM | GI50 (HCT-15): 8040 nM | GI50 (OVCAR-3): 15300 nM | GI50 (HOP-62): 69300 nM | GI50 (NCI-H522): 12200 nM | GI50 (OVCAR-4): 31900 nM | GI50 (MCF7): 49000 nM | GI50 (SF-295): 22500 nM | GI50 (HOP-92): 37600 nM | GI50 (COLO 205): 19500 nM | GI50 (MDA-MB-435): 12800 nM | GI50 (UO-31): 10500 nM | GI50 (A549): 14900 nM | GI50 (CCRF-CEM): 16000 nM | GI50 (NCI-H322M): 25000 nM | GI50 (Hs-578T): 55100 nM | GI50 (UACC-62): 14600 nM | GI50 (RXF 393): 20800 nM | GI50 (HCT-116): 44600 nM | GI50 (KM12): 2620 nM | GI50 (TK-10): 5930 nM | GI50 (EKVX): 20000 nM | GI50 (SW-620): 10900 nM | GI50 (SNB-75): 16900 nM | GI50 (HCC 2998): 9620 nM | GI50 (SK-MEL-28): 37500 nM | GI50 (HT-29): 25900 nM | GI50 (SF-539): 32200 nM
